We go through twelve compounds from paper PMC7037682, “Herb–Drug Interaction of Red Ginseng Extract and Ginsenoside Rc with Valsartan in Rats” (Molecules, 2020).

Read-outs that look alike come from different tables or passages of the source. Bounds are passed on as bounds.

Series [1] is described as follows: Protein binding in rat plasma by rapid equilibrium dialysis. The class given is in vitro ADME. As to conditions: rapid equilibrium dialysis 4 h 37 °C. The procedure:
The protein binding of Rb1, Rb2, and Rc (1 μM) in rat plasma and liver homogenate was determined using a rapid equilibrium dialysis kit (ThermoFisher Scientific Korea, Seoul, Korea) according to the manufacturer’s instructions. Briefly, 100 μL of rat plasma and 10% liver homogenate samples containing Rb1, Rb2, or Rc (1 μM) were added to the sample chamber of a semipermeable membrane (molecular weight cut-off 8000 Da) and 300 μL of HBSS was added to the outer buffer chamber. Four hours after incubation at 37 °C on a shaking incubator at 300 rpm, aliquots (50 μL) were collected from both the sample and buffer chambers and treated with equal volumes of fresh HBSS and plasma, respectively, to match the sample matrices. The matrix-matched samples (100 μL) were mixed with 300 μL of 80% ice-cold methanol containing berberine 0.05 ng/mL and 0.1% formic acid for 15 min.
Plasma protein binding was calculated using the following equation [47]. (1) Undiluted free drug fraction fu= Drug concentration in buffer chamber/Drug concentration in plasma chamber
(Equilibrium dialysis compares concentrations on both sides of a semipermeable membrane.)

Another series concerns the target T1, OATP1B1 (Homo sapiens, UniProt Q9Y6L6).
T1 sequence (Q9Y6L6 1-691): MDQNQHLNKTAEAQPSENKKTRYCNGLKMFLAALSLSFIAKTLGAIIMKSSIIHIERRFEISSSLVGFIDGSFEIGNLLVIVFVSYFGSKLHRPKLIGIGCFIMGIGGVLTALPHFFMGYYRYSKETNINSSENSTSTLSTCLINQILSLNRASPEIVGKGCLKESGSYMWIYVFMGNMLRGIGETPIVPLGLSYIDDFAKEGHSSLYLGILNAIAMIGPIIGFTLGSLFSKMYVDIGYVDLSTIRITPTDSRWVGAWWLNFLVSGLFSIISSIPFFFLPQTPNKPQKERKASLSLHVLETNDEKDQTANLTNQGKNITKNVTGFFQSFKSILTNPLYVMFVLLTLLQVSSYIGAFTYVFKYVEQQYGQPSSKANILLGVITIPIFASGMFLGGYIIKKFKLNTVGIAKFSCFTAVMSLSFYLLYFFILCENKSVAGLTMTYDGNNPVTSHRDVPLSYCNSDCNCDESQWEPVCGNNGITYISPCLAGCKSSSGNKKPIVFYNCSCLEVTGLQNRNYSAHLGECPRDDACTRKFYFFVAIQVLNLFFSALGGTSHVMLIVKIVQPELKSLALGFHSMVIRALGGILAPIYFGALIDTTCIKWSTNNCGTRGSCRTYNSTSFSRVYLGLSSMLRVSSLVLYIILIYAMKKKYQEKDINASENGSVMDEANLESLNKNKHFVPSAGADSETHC
Put plainly: Inhibition of OATP1B1-mediated valsartan uptake in HEK293-OATP1B1 cells. Format: cell-based. The settings on record: 5 μM valsartan, 5 min. Also on record: host or cells: HEK293. The procedure:
Transporter mediated uptake of probe substrates or valsartan was calculated by subtracting the uptake rate of probe substrates or valsartan into HEK293-mock cells from that into HEK293 cells expressing respective transporters.

In the next series the target is T2, OCT1 (Homo sapiens, UniProt O15245).
T2 sequence (O15245 1-554): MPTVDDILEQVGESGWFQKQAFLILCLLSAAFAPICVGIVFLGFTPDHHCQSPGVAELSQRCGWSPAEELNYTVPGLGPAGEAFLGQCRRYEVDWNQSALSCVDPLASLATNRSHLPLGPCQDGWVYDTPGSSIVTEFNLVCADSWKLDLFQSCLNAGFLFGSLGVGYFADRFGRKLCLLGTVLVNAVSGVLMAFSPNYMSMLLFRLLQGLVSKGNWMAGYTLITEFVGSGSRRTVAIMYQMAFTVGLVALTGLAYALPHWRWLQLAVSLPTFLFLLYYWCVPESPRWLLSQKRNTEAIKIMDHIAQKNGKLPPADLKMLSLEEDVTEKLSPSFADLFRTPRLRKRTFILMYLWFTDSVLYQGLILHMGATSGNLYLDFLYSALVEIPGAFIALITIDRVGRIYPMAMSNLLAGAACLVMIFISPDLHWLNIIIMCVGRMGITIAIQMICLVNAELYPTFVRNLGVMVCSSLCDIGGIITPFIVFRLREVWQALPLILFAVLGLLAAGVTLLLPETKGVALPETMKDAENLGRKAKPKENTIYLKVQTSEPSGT
In words: Inhibition of OCT1-mediated [3H]MPP+ uptake in HEK293-OCT1 cells. The procedure: HEK293 cells overexpressing the OCT1, OCT2, OAT1, OAT3, OATP1B1, and OATP1B3 transporters (HEK293-OCT1, -OCT2, -OAT1, -OAT3, -OATP1B1, and -OATP1B3, respectively) and HEK293-mock cells (Corning Life Sciences; Woburn, MA, USA) were used and characterized as previously described.
HEK293 cells overexpressing drug transporters and HEK293-mock cells were seeded in poly-D-lysine-coated 96-well plates at a density of 10^5 cells/well and were cultured in DMEM supplemented with 10% FBS, 5 mM non-essential amino acids, and 2 mM sodium butyrate in a humidified atmosphere with 8% CO2 at 37 °C.
To examine the effects of ginsenosides and typical inhibitors on transporter activity, aliquots (100 μL) of HBSS containing the probe substrate and ginsenosides or typical inhibitors were added to the cells after aspirating pre-incubated HBSS. The concentrations and probe substrates were as follows: 0.1 μM [^3H]MPP^+ for OCT1 and OCT2, 0.1 μM [^3H]PAH for OAT1, 0.1 μM [^3H]ES for OAT3 and OATP1B1, and 0.1 μM [^3H]EG for OATP1B3. […] Then the uptake of probe substrates into HEK293-mock cells and HEK293-OCT1, -OCT2, -OAT1, -OAT3, -OATP1B1, and -OATP1B3 cells in the presence and absence of typical inhibitor or each ginsenoside with previously described concentration range was measured for 5 min. Immediately after placing the plates on ice, the cells were washed three times with 100 μL of ice-cold HBSS, followed by lysing with 50 μL of 10% SDS solution and mixing with 150 μL of Optiphase cocktail solution (Perkin Elmer Inc., Boston, MA, USA). The radioactivity of the probe substrates in the cells was determined using a liquid scintillation counter.
In the inhibition studies, the uptake rate of substrate by HEK293 cells overexpressing the respective transporters was used as the control (100%) and the uptake rate of substrates in the presence of typical inhibitors or ginsenosides expressed as a percentage of the control. The inhibition data were fitted to an inhibitory effect model using Sigma plot (version 10.0; Systat Software Inc., San Jose, CA, USA). IC50 value indicated the half-maximal inhibitory concentration of the inhibitor.

Another series has as its system UGT1A9. The settings on record: cited from earlier work; for IC50: read-out: IC50 UGT1A9.
The mark [2] stands for this setting: read-out: IC50 OCT1, HEK293-OCT1, 0.1 μM [3H]MPP+ uptake, 5 min.

In general, fraction unbound refers to the share of the substance not bound to proteins or other matrix. A high value points to much free substance. As a reminder, the IC50 is the point on the concentration scale where inhibition reaches its midpoint. Compound `CC(C)=CCC[C@](C)(O[C@@H]1O[C@H](CO[C@@H]2OC[C@H](O)[C@H](O)[C@H]2O)[C@@H](O)[C@H](O)[C@H]1O)[C@H]1CC[C@]2(C)[C@@H]1[C@H](O)C[C@@H]1[C@@]3(C)CC[C@H](O[C@@H]4O[C@H](CO)[C@@H](O)[C@H](O)[C@H]4O[C@@H]4O[C@H](CO)[C@@H](O)[C@H](O)[C@H]4O)C(C)(C)[C@@H]3CC[C@]12C` [Rb2, ginsenoside Rb2] yielded a fraction unbound at 4 h, 1 μM in series [1] of 0.001 ± 4e-08. The IC50 at OATP1B1 was 8.8 µM; against OCT1 it was over 100 µM. Regarding `CC(C)=CCC[C@](C)(O[C@@H]1O[C@H](CO[C@@H]2O[C@@H](CO)[C@H](O)[C@H]2O)[C@@H](O)[C@H](O)[C@H]1O)[C@H]1CC[C@]2(C)[C@@H]1[C@H](O)C[C@@H]1[C@@]3(C)CC[C@H](O[C@@H]4O[C@H](CO)[C@@H](O)[C@H](O)[C@H]4O[C@@H]4O[C@H](CO)[C@@H](O)[C@H](O)[C@H]4O)C(C)(C)[C@@H]3CC[C@]12C` [Rc, ginsenoside Rc], in series [1], the fraction unbound at 4 h, 1 μM came to 0.001 ± 7.01e-08. Also, the IC50 is 13.6 µM against OATP1B1 and over 100 µM against OCT1. On to `CC(C)=CCC[C@](C)(O)[C@H]1CC[C@]2(C)[C@@H]1[C@H](O)C[C@@H]1[C@@]3(C)CC[C@H](O[C@@H]4O[C@H](CO)[C@@H](O)[C@H](O)[C@H]4O[C@@H]4O[C@H](CO)[C@@H](O)[C@H](O)[C@H]4O)C(C)(C)[C@@H]3CC[C@]12C` [Rg3, ginsenoside Rg3], for which the figures for the IC50 in the series with UGT1A9 and at OCT1 (setting [2]) were 15.1 µM and over 100 µM, respectively. For `CC(C)=CCC[C@](C)(O[C@@H]1O[C@H](CO)[C@@H](O)[C@H](O)[C@H]1O)[C@H]1CC[C@]2(C)[C@@H]1[C@H](O)C[C@@H]1[C@@]3(C)CC[C@H](O)C(C)(C)[C@@H]3CC[C@]12C` [Compound K, compound K], at OCT1 (setting [2]), the half-inhibitory concentration (IC50) was over 100 µM. `CC(C)=CCCC(C)(O)[C@H]1CC[C@]2(C)[C@@H]1[C@H](O)C[C@@H]1[C@@]3(C)CC[C@H](O)C(C)(C)[C@@H]3CC[C@]12C` (stereo in doubt) [PPD, protopanaxadiol]: at OCT1 (setting [2]), the IC50 is over 100 µM. With `CC(C)=CCC[C@](C)(O[C@@H]1O[C@H](CO)[C@@H](O)[C@H](O)[C@H]1O)[C@H]1CC[C@]2(C)[C@@H]1[C@H](O)C[C@@H]1[C@@]3(C)CC[C@H](O[C@@H]4O[C@H](CO)[C@@H](O)[C@H](O)[C@H]4O[C@@H]4O[C@H](CO)[C@@H](O)[C@H](O)[C@H]4O)C(C)(C)[C@@H]3CC[C@]12C` [Rd, ginsenoside Rd], at OCT1, the half-maximal inhibitory concentration (IC50) is over 100 µM. At OCT1, `CC(C)=CCC[C@](C)(O)[C@H]1CC[C@]2(C)[C@@H]1[C@H](O)C[C@@H]1[C@@]3(C)CC[C@H](O[C@@H]4O[C@H](CO)[C@@H](O)[C@H](O)[C@H]4O)C(C)(C)[C@@H]3CC[C@]12C` [Rh2, ginsenoside Rh2] registered an IC50 of over 100 µM. Consider `CC(C)=CCC[C@](C)(O[C@@H]1O[C@H](CO)[C@@H](O)[C@H](O)[C@H]1O)[C@H]1CC[C@]2(C)[C@@H]1[C@H](O)C[C@@H]1[C@@]3(C)CC[C@H](O)C(C)(C)[C@@H]3[C@@H](O[C@@H]3O[C@H](CO)[C@@H](O)[C@H](O)[C@H]3O)C[C@]12C` [Rg1, ginsenoside Rg1], for which the “IC50 UGT1A9” value with UGT1A9 is “did not inhibit”. This compound displayed a 50% inhibitory concentration (IC50) at OCT1 of over 100 µM. Compound `CC(C)=CCC[C@](C)(O)[C@H]1CC[C@]2(C)[C@@H]1[C@H](O)C[C@@H]1[C@@]3(C)CC[C@H](O)C(C)(C)[C@@H]3[C@@H](O[C@@H]3O[C@H](CO)[C@@H](O)[C@H](O)[C@H]3O)C[C@]12C` [Rh1, ginsenoside Rh1] yielded a 50% inhibitory concentration (IC50) at OCT1 of over 100 µM. `CC(C)=CCC[C@](C)(O)[C@H]1CC[C@]2(C)[C@@H]1[C@H](O)C[C@@H]1[C@@]3(C)CC[C@H](O)C(C)(C)[C@@H]3[C@@H](O)C[C@]12C` [PPT, protopanaxatriol]: on OCT1 (setting [2]), the half-inhibitory concentration (IC50) is over 100 µM. Turning to `CC(C)=CCC[C@](C)(O[C@@H]1O[C@H](CO)[C@@H](O)[C@H](O)[C@H]1O)[C@H]1CC[C@]2(C)[C@@H]1[C@H](O)C[C@@H]1[C@@]3(C)CC[C@H](O)C(C)(C)[C@@H]3[C@@H](O[C@@H]3O[C@H](CO)[C@@H](O)[C@H](O)[C@H]3O[C@@H]3O[C@@H](C)[C@H](O)[C@@H](O)[C@H]3O)C[C@]12C` [Re, ginsenoside Re], the “IC50 UGT1A9” value with UGT1A9 is given as “did not inhibit”. For the same compound, at OCT1, the half-maximal inhibitory concentration (IC50) is over 100 µM. In series [1], `CC(C)=CCC[C@](C)(O[C@@H]1O[C@H](CO[C@@H]2O[C@H](CO)[C@@H](O)[C@H](O)[C@H]2O)[C@@H](O)[C@H](O)[C@H]1O)[C@H]1CC[C@]2(C)[C@@H]1[C@H](O)C[C@@H]1[C@@]3(C)CC[C@H](O[C@@H]4O[C@H](CO)[C@@H](O)[C@H](O)[C@H]4O[C@@H]4O[C@H](CO)[C@@H](O)[C@H](O)[C@H]4O)C(C)(C)[C@@H]3CC[C@]12C` [Rb1, ginsenoside Rb1] had an unbound share (fraction unbound) at 4 h, 1 μM of 0.002. Further, the half-maximal inhibitory concentration (IC50) is 24.1 µM on OATP1B1, 21.3 µM with UGT1A9 and over 100 µM against OCT1.
